Experimental data reported in patent US20110295343A1, “NEAR-INFRARED ELECTROMAGNETIC MODIFICATION OF CELLULAR STEADY-STATE MEMBRANE POTENTIALS” (priority 2008, published 2011).
“And” between values parts separate entries of the source, which are not always exact repeats. Identical values can stand only once. Like-named read-outs stand apart in the source and are kept apart here.

Assays:
C. albicans = test: Colony counts of C. albicans plated with Lamisil or Sporanox after sub-lethal NIMELS laser (Example XIII); assay type: cell-based, Candida albicans; conditions: for C. albicans Colony Counts, Control: no laser, group AF8, replicates 1-5; for C. albicans Colony Counts, Experimental: sub-lethal NIMELS laser (AF-8 dosimetry), replicates 1-5
Procedure: Similar cell culture and kinetic protocols were performed for all NIMELS irradiation with E. coli and C. albicans in vitro tests. […] A standardized suspension was aliquoted into selected wells in a 24-well tissue culture plate. Following laser treatments, 100 μL was removed from each well and serially diluted to 1:1000 resulting in a final dilution of 1:5×10^6 of initial culture. An aliquot of each final dilution were spread onto separate plates. The plates were then incubated at 37° C. for approximately 16-20 hours. Manual colony counts were performed and recorded.
The null hypothesis is μ1−μ2=0 and μ1−μ3=0 where: a) μ1 is sub-lethal dosimetry ftom the NIMEL laser system on C. albicans as a control and; b) μ2 is the same sub-lethal dosimetry from the NTMEL laser system on C. albicans with the addition of Sporanos at resistant MIC just below effectiveness level and; c) μ3 is the same sub-lethal dosimetry from the NIMEL laser system on C. albicans with the addition of Lamisil at resistant MIC just below effectiveness level.

S. aureus = conditions: cited from earlier work

## CN(C/C=C/C#CC(C)(C)C)Cc1cccc2ccccc12 [Lamisil, terbinafine]
C. albicans; 0.5 ug/ml
  effect of sub-lethal NIMELS irradiation on antifungal action against C. albicans colonies: potentiated by a sub-lethal dosimetry irradiation
C. albicans; Lamisil 0.5 ug/ml
  C. albicans Colony Counts, Control: 290 and 335 and 334 and 280
  C. albicans Colony Counts, Experimental: 101 and 70 and 90 and 78 and 74

## CCC(C)n1ncn(-c2ccc(N3CCN(c4ccc(OCC5COC(Cn6cncn6)(c6ccc(Cl)cc6Cl)O5)cc4)CC3)cc2)c1=O (stereo not shown) [Sporanox, itraconazole]
C. albicans; Sporanox 0.5 ug/ml
  C. albicans Colony Counts, Control: 360 and 332 and 320 and 311 and 295
  C. albicans Colony Counts, Experimental: 110 and 86 and 91 and 80 and 107

## CCCCCCCCCC(=O)N[C@@H](Cc1c[nH]c2ccccc12)C(=O)N[C@H](CC(N)=O)C(=O)N[C@@H](CC(=O)O)C(=O)N[C@@H]1C(=O)NCC(=O)N[C@@H](CCCN)C(=O)N[C@@H](CC(=O)O)C(=O)N[C@H](C)C(=O)N[C@@H](CC(=O)O)C(=O)NCC(=O)N[C@H](CO)C(=O)N[C@@H]([C@H](C)CC(=O)O)C(=O)N[C@@H](CC(=O)c2ccccc2N)C(=O)O[C@@H]1C [daptomycin]
S. aureus; cell growth halted by erythromycin, within 2 h
  daptomycin concentration to achieve a 3-log reduction: 10 μg/ml
S. aureus; used alone, stationary phase S. aureus, 10^10 CFU/ml
  daptomycin concentration to achieve a 3-log reduction: 32 μg/ml
